Measurements as given in US20060142354A1, “Use of epothilone derivatives for the treatment of hyperparathyroidism” (priority 2002, published 2006).

What was measured:
Format in all cases: cell-based, human
[1] = system: Tumor disks from seven fresh surgical specimens; experiment: in vitro angiogenesis assay, mean over all tumors; details: Mean +/− SEM of seven tumors; for % Initiation % ↓ / Al (0-16) % ↓: 10^−8 M, decrease vs control
Text: (§1) It is submitted that at least part of the effect observed with the compounds of formula I on the diseases mentioned herein are resulting from the inhibition of angiogenesis. […] It is known that human vein disks incorporated into a 0.3% fibrin-thrombin clot will develop angiogenic vessel growth from the cut edge of the vessel disk.
(§2) METHODS: Tumor disks (2 mm in diameter) from seven fresh surgical specimens are incorporated into fibrin-thrombin clots overlayed with nutrient medium containing 20% fetal bovine serum. The fragments are allowed to become angiogenic and on day 18, nutrient medium or nutrient medium containing a compound of formula I, is added. Tumor disks are visually assessed over time to determine the percent of wells that initiated an angiogenic response (% I). Neovessel growth, density, and length are graded at intervals using a semi-quantitative visual neovessel growth-rating scheme [angiogenic index (AI), 0-16 scale]. Statistical significance of the results is tested using comparison of two proportions for % initiation and t-tests for the angiogenic index (p<0.05 considered significant*).

[2] = system: Midgut carcinoid (met) tumor disks; experiment: in vitro angiogenesis assay, tumor disks in fibrin-thrombin clot
Text: as §1, §2

[3] = system: Midgut carcinoid tumor disks; experiment: as above
Text: as §1, §2

[4] = system: Thymic carcinoid tumor disks; experiment: as above
Text: as §1, §2

[5] = system: Bronchial carcinoid tumor disks; experiment: as above
Text: as §1, §2

[6] = system: Renal cell carcinoma tumor disks; experiment: as above
Text: as §1, §2

[7] = system: Thyroid cancer tumor disks; experiment: as above; details: Thyroid cancer (identified as a parathyroid adenoma)
Text: as §1, §2

[8] = system: Breast carcinoma tumor disks; experiment: as above
Text: as §1, §2

[9] = percent of wells that initiated an angiogenic response

With `C/C(=C\c1csc(C)n1)[C@@H]1C[C@@H]2O[C@]2(C)CCC[C@H](C)[C@H](O)[C@@H](C)C(=O)C(C)(C)[C@@H](O)CC(=O)O1` [epothilone B] the “Al (0-16) EpoB 10^−8 M” value ([1]; angiogenic index, 0-16 scale) was 3 ± 1.1, the “% Initiation EpoB 10^−8 M” value [1, 9] was 17.2 ± 7.4% and the “% Initiation % ↓” value [1] was 60±13.8%. For the same compound, the “Al (0-16) % ↓” value [1] was 73±9%, the “% Initiation % ↓” value ([1]; listed as EpoB) was 60 ± 14% and the “Al (0-16) % ↓” value ([1]; listed as EpoB) was 73 ± 9%. For the same compound, the “% Initiation % ↓” value ([2]; 10^−8 M, decrease vs control) was 100%, the “Al (0-16) % ↓” value ([2]; 10^−8 M, decrease vs control) was 100% and the “Al (0-16) EpoB 10^−8 M” value ([2]; angiogenic index, 0-16 scale) was 0. For the same compound, the “% Initiation EpoB 10^−8 M” value [2, 9] was 0%, the “% Initiation % ↓” value ([3]; 10^−8 M, decrease vs control) was 15% and the “Al (0-16) % ↓” value ([3]; 10^−8 M, decrease vs control) was 40%. For the same compound, the “Al (0-16) EpoB 10^−8 M” value ([3]; angiogenic index, 0-16 scale) was 8.2, the “% Initiation EpoB 10^−8 M” value [3, 9] was 20% and the “% Initiation % ↓” value ([4]; 10^−8 M, decrease vs control) was 40%. For the same compound, the “Al (0-16) % ↓” value ([4]; 10^−8 M, decrease vs control) was 73%, the “Al (0-16) EpoB 10^−8 M” value ([4]; angiogenic index, 0-16 scale) was 2.5 and the “% Initiation EpoB 10^−8 M” value [4, 9] was 3.3%. The “% Initiation % ↓” value ([5]; 10^−8 M, decrease vs control) was 12%, the “Al (0-16) % ↓” value ([5]; 10^−8 M, decrease vs control) was 40% and the “Al (0-16) EpoB 10^−8 M” value ([5]; angiogenic index, 0-16 scale) was 6.1. The “% Initiation EpoB 10^−8 M” value [5, 9] was 37%, the “% Initiation % ↓” value ([6]; 10^−8 M, decrease vs control) was 88% and the “Al (0-16) % ↓” value ([6]; 10^−8 M, decrease vs control) was 80%. The “Al (0-16) EpoB 10^−8 M” value ([6]; angiogenic index, 0-16 scale) was 1, the “% Initiation EpoB 10^−8 M” value [6, 9] was 6.7% and the “Al (0-16) EpoB 10^−8 M” value ([7]; angiogenic index, 0-16 scale) was 2.1. The “% Initiation EpoB 10^−8 M” value [7, 9] was 50%, the “% Initiation % ↓” value ([7]; 10^−8 M, decrease vs control) was 50% and the “Al (0-16) % ↓” value ([7]; 10^−8 M, decrease vs control) was 85%. For the same compound, the “% Initiation % ↓” value ([8]; 10^−8 M, decrease vs control) was 94%, the “Al (0-16) % ↓” value ([8]; 10^−8 M, decrease vs control) was 91% and the “Al (0-16) EpoB 10^−8 M” value ([8]; angiogenic index, 0-16 scale) was 1. The “% Initiation EpoB 10^−8 M” value [8, 9] was 3.3%.
